The subject of assay [1] is Salmonella typhimurium. As to the kind of experiment: Mutagenic activity in Salmonella Typhimurium TA100 assessed as fold increase in maximum revertant at 1000 ug by Ames test. The assay is classed as functional, Salmonella enterica subsp. enterica serovar Typhimurium.
Assay [2] relates to Salmonella typhimurium. Description: Mutagenic activity in Salmonella Typhimurium TA100 assessed as fold increase in maximum revertant at 1000 ug by Ames test in presence of S9 fraction. The assay is classed as functional, Salmonella enterica subsp. enterica serovar Typhimurium.
Assay [3] deals with T1, Cytochrome P450 3A4 (Homo sapiens, UniProt P08684). As to the kind of experiment: Inhibition of CYP3A4. The assay is classed as ADME.
Assay [4] concerns the target T1, Cytochrome P450 3A4. As to the kind of experiment: Inhibition of CYP3A4 in human liver microsome measured after 30 mins preincubation in presence of NADPH. Type of assay: ADME, microsomes.
Assay [5] has as its system Salmonella typhimurium. Description: Mutagenic activity in Salmonella Typhimurium TA98 assessed as fold increase in maximum revertant at 100 ug by Ames test. Type of assay: functional, Salmonella enterica subsp. enterica serovar Typhimurium.
For assay [6], the system named is Salmonella typhimurium. As to the kind of experiment: Mutagenic activity in Salmonella Typhimurium TA98 assessed as fold increase in maximum revertant at 300 ug by Ames test in presence of S9 fraction. The assay is classed as functional, Salmonella enterica subsp. enterica serovar Typhimurium.
Setting [7] is: Salmonella enterica subsp. enterica serovar Typhimurium.

The source made the active and inactive calls. The rule behind the calls is not given here.

T1 sequence (P08684 whole entry): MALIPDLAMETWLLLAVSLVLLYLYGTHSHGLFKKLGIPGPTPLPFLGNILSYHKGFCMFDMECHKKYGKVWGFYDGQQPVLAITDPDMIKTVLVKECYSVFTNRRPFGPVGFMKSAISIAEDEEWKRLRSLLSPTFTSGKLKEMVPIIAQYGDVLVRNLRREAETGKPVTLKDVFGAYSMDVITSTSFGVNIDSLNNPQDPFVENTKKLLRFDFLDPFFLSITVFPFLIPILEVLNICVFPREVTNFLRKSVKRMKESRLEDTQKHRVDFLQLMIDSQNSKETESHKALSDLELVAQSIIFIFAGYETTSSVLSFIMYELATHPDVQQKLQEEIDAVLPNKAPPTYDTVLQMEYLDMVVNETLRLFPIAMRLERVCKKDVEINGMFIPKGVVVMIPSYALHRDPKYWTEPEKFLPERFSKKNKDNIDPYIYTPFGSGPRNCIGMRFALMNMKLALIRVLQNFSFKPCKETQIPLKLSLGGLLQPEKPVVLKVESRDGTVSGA

As to `Cc1cc(CCCP(=O)(O)O)cc(C)c1-c1nc2ccc(C(=O)Nc3ccc4ccccc4n3)cc2[nH]1`, the figures for the “fold change (FC)” value in the assay with Salmonella typhimurium [1] and in the assay on Salmonella typhimurium [2] were 2.48 and 2, respectively.
On to `Cc1cccc(C)c1-c1nc2ccc(C(=O)Nc3ccc4ccccc4n3)cc2[nH]1`, for which the IC50 came to 7.3 µM on Cytochrome P450 3A4 [3] and 2.7 µM at Cytochrome P450 3A4 [4].
For the compound `Cc1cc(CCC(=O)O)cc(C)c1-c1nc2ccc(C(=O)Nc3ccc4ccccc4n3)cc2[nH]1`, the “fold change (FC)” value in the assay with Salmonella typhimurium [5] was found to be 5.86; in the assay with Salmonella typhimurium [6] it was 14.57.
`Cc1ccccc1-c1nc2ccc(C(=O)Nc3ccc4ccccc4n3)cc2[nH]1`: the IC50 at Cytochrome P450 3A4 [3] and at Cytochrome P450 3A4 [4] was greater than 50 µM in each case.
Consider `O=C(O)CCc1cc(Cl)c(-c2nc3ccc(C(=O)Nc4ccc5ccccc5n4)cc3[nH]2)c(Cl)c1`, for which the outcome in the assay with Salmonella typhimurium [5] (setting [7]) and in the assay on Salmonella typhimurium [6] (setting [7]) was inactive.
Take `O=C(Nc1ccc2ccccc2n1)c1ccc2nc(-c3c(Cl)cc(CCCP(=O)(O)O)cc3Cl)[nH]c2c1`: the outcome in the assay on Salmonella typhimurium [1] (setting [7]) and in the assay on Salmonella typhimurium [2] (setting [7]) was inactive.
